Non-standard residues stand in square brackets, D forms with d. Residues, ends and D or L forms follow the SMILES beside them. *: point of attachment. Daunorubicin = COc1cccc2c1C(=O)c1c(O)c3c(c(O)c1C2=O)C[C@@](O)(C(C)=O)C[C@@H]3O[C@H]1C[C@H](N*)[C@H](O)[C@H](C)O1; Sta = CC(C)C[C@H](N)[C@@H](O)CC(=O)O; pGlu = O=C1CC[C@@H](C(=O)O)N1; Isovaleryl = CC(C)CC(=O)*
Legend:
carcinoma cell trouase = test: Inhibitor profile of carcinoma cell trouase; assay type: biochemical, human
[1] = Metabolism and clearance of Suc-Met-Ala-Leu-Dox in mice (plasma, urine); assay type: in vivo, mouse
Description: Plasma samples were obtained at 1 or 4 hours, and urine was collected at 2 and 24 hours post administration. Levels of the prodrug and metabolites were measured by LC-MS with UV detection of doxorubicin.

[2] = Metabolism and clearance of Suc-Leu-Ala-Leu-Dox in mice (plasma, urine); assay type: in vivo, mouse
Description: Plasma samples of 100 μl were transferred to microcentrifuge tubes (1.5 mL) and an internal standard of daunorubicin (20 μL at 0.5 mg/ml) was added together with acetonitrile (400 μl). The tubes were capped and briefly vortexed followed by centrifugation at 14,000 rpm. 420 μl from each tube was removed and dried in vacuo. Each sample was reconstituted in 65 μl 20 mM aqueous ammonium formate (AF) pH 4.5 buffer containing acetonitrile (20%) prior to analysis by reverse phase liquid chromatography in combination with tandem mass spectrometry (LC MS/MS).
Urine was collected at 2 and 24 hours post administration from pairs of mice in metabolic cages. Urine samples were diluted with AF buffer containing acetonitrile (20%) to give a target analyte concentration within the practical range of the LC MS/MS assay. 30 μl of each diluted sample was placed in a micro centrifuge tube (1.5 ml) and an internal standard of daunorubicin (20 μL at 0.5 mg/ml) was added together with 50 μl of AF buffer containing acetonitrile (20%). Each sample was then analyzed by LC MS/MS.
An Agilent HP1100 HPLC with DAD detector and Chemstation software was coupled to a PE Sciex API 365 mass spectrometer with an electrospray ion source. HPLC was performed on a TSK-Gel Super ODS, […], 4.6×50 mm (TosoHaas) reversed phase column equipped with a […] C18 guard disc (Higgins Analytical) and stainless steel frit (Upchurch Scientific). Chromatography was performed at room temperature. The flow rate was 0.5 ml/min. Injection volume was 50 μl. Gradient elution was performed using a mobile phase of AF buffer with increasing amounts of acetonitrile. The API 365 was operated at 365° C. in a multiple reaction monitoring mode, set to monitor specific analyte parent-daughter ion pairs. Integration of chromatograms was performed by MacQuan software (PE Sciex) and quantitation of each analyte obtained by comparison to previously obtained calibration curves. Daunorubicin was used as an internal standard in all cases.

[3] = test system: HeLa cell anion exchange fraction (F1), trouase; test: Relative cleavage by HeLa cell anion exchange fraction (F1) versus Suc-βAla-Leu-Ala-Leu standard; assay type: biochemical, human; details: 2 hr at 37° C., 12.5 μg/mL, HeLa F1; relative to Suc-βAla-Leu-Ala-Leu-(Dox or Dnr) standard
Description: Thirty billion commercially produced HeLa Cells (human cervical carcinoma, Computer Cell Culture Ceizter, Seneffe, Belgium) were homogenized with a sonicator and with a Dounce homogenizer in 108 mL of aqueous lysis solution. The lysis solution contained 0.02% w/v Triton X-100, 0.04% w/v sodium azide, and a cocktail of protease inhibitors (2 tablets/50 mL Complete™, EDTA-free tablets, Roche Molecular Biochemicals). The cell homogenate was centrifuged 30 minutes at 4° C. at 5000×g and the pellet was homogenized in a second 108 mL of lysis solution using a Dounce homogenizer and centrifuged as before. The supernatants were combined and centrifuged for 90 min at 145,000×g at 4° C.
A portion of the ultracentrifugation supernatant was diluted 2-fold with a 20 mM triethanolamine-HCl pH 7.2 buffer containing 0.01% (w/v) Triton X-100 and 0.02% (w/v) sodium azide (equilibration buffer). Thirty mL of the resulting solution, corresponding to approximately 180 mg of protein, was loaded at 4° C. on a 2.6×9.4 cm Source™ 15Q (Amersham Pharmacia Biotech) low pressure anion exchange chromatography column (1 ml/minute). The column was then washed with 250 ml of the equilibration buffer at a flow rate of 1 mL/minute. Proteins were eluted in a NaCl linear concentration gradient (0–0.5 M in the equilibration buffer, total volume of the gradient was 1000 ml) at a flow rate of 3 ml/minute. Two-minute fractions were collected and used for enzyme activity determination using βAla-Leu-Ala-Leu-Dox as the substrate. Its transformation into Ala-Leu-Dox was quantified by reverse phase high performance liquid chromatography utilizing fluorescence detection of the anthracycline moiety. The fractions containing the highest activity levels were pooled (fractions #43–46; ˜0.13 M NaCl), supplemented with protease inhibitors (Complete™, EDTA-free tablets, Roche Molecular Biochemicals), and stored as aliquots at −80° C.
Test compounds were incubated for 2 hr at 37° C. at a concentration of 12.5 μg/mL with HeLa cell anion exchange fraction (F1), as prepared in Example 1(c). Following incubation, three volumes of acetonitrile were added to stop the reaction and remove protein from the mixture. The sample was centrifuged at 18,000 g for 5 minutes and 100 μL of supernatant was mixed with 300 μL of water prior to analysis by HPLC. For HPLC analysis 50 μL of sample was injected on a 4.6×50 mm 2μ TSK Super-ODS chromatography column at 40° C. and eluted with a 3 minute linear gradient from 26% to 68% acetonitrile in aqueous 20 mM ammonium acetate pH 4.5 buffer at 2 mL/min. Detection was by fluorescence using an excitation wavelength of 235 nm and an emission wavelength of 560 nm.
the amount of cleavage of each test compound was compared to the amount of a standard Suc-βAla-Leu-Ala-Leu-therapeutic agent conjugate cleaved by F1 under the same conditions. The therapeutic agent in the standard (Dox or Dnr) was the same as in the test compound. Table 3 provides the relative cleavage rates of several tripeptide prodrugs.

[4] = after single intravenous 120 mg/kg Suc-Met-Ala-Leu-Dox
[5] = after single intravenous 117 mg/kg Suc-Leu-Ala-Leu-Dox

Row | Compound | inhibition of carcinoma cell trouase (carcinoma cell trouase) | Relative Cleavage % [3] | other results
1 | c1cnc2c(c1)ccc1cccnc12 [1,10-phenanthroline] | inhibited | – | –
2 | COc1cccc2c1C(=O)c1c(O)c3c(c(O)c1C2=O)C[C@@](O)(C(=O)CO)C[C@@H]3O[C@H]1C[C@H](NC(=O)[C@H](CC(C)C)NC(=O)[C@H](C)N)[C@H](O)[C@H](C)O1 [Ala-Leu-Dox] | – | – | Plasma 1 hr, percent of administered dose ([1]; mouse, in vivo, iv, 120 mg/kg): 0.002%; Plasma 4 hr, percent of administered dose ([1]; mouse, in vivo, iv, 120 mg/kg): 0.000%; Urine 2 hr, percent of administered dose ([1]; mouse, in vivo, iv, 120 mg/kg): 0.16%; Urine 24 hr, percent of administered dose ([1]; mouse, in vivo, iv, 120 mg/kg): 0.02%; Plasma 1 hr, percent of administered dose ([2]; mouse, in vivo, iv, 117 mg/kg): 0.006%; Plasma 4 hr, percent of administered dose ([2]; mouse, in vivo, iv, 117 mg/kg): 0.000%; Urine 2 hr, percent of administered dose ([2]; mouse, in vivo, iv, 117 mg/kg): 0.02%; Urine 24 hr, percent of administered dose ([2]; mouse, in vivo, iv, 117 mg/kg): 0.01%
3 | CCCNC(=O)[C@H]1O[C@@H]1C(=O)N[C@H](C(=O)N1CCC[C@H]1C(=O)O)[C@@H](C)CC [CA074] | not | – | –
4 | CC(C)C[C@H](NC(=O)[C@H]1O[C@@H]1C(=O)O)C(=O)NCCCCN=C(N)N [Compound E64, E64] | not | – | –
5 | COc1cccc2c1C(=O)c1c(O)c3c(c(O)c1C2=O)C[C@@](O)(C(=O)CO)C[C@@H]3O[C@H]1C[C@H](NC(=O)[C@@H](N)CC(C)C)[C@H](O)[C@H](C)O1 [Leu-Dox] | – | – | Plasma 1 hr, percent of administered dose [1, 4]: 0.022%; Plasma 4 hr, percent of administered dose [1, 4]: 0.001%; Urine 2 hr, percent of administered dose [1, 4]: 7.28%; Urine 24 hr, percent of administered dose [1, 4]: 1.25%; plasma level, times higher than Ala-Leu-Dox ([1]; at both 1 and 4 hours after 120 mg/kg Suc-Met-Ala-Leu-Dox): about 10 times; Plasma 1 hr, percent of administered dose [2, 5]: 0.019%; Plasma 4 hr, percent of administered dose [2, 5]: 0.001%; Urine 2 hr, percent of administered dose [2, 5]: 1.53%; Urine 24 hr, percent of administered dose [2, 5]: 0.45%
6 | COc1cccc2c1C(=O)c1c(O)c3c(c(O)c1C2=O)C[C@@](O)(C(C)=O)C[C@@H]3O[C@H]1C[C@H](NC(=O)[C@H](CC(C)C)NC(=O)[C@H](C)NC(=O)[C@H](CC(C)C)NC(=O)[C@@H]2CCC(=O)N2)[C@H](O)[C@H](C)O1 [Pyg-Leu-Ala-Leu-Dnr] ([pGlu]LAL-Daunorubicin) | – | 76% | –
7 | COc1cccc2c1C(=O)c1c(O)c3c(c(O)c1C2=O)C[C@@](O)(C(C)=O)C[C@@H]3O[C@H]1C[C@H](NC(=O)[C@H](CC(C)C)NC(=O)[C@H](C)NC(=O)[C@H](CC(C)C)NC(=O)CCC(=O)O)[C@H](O)[C@H](C)O1 [Suc-Leu-Ala-Leu-Dnr] | – | 76% | –
8 | COc1cccc2c1C(=O)c1c(O)c3c(c(O)c1C2=O)CC(O)(C(C)=O)CC3OC1CC(NC(=O)C(CC(C)C)NC(=O)C(C)NC(=O)C(CCSC)NC(=O)CCC(=O)O)C(O)C(C)O1 (stereo not drawn) [Suc-Met-Ala-Leu-Dnr] | – | 69% | –
9 | CCC(C)C(NC(=O)CNC(=O)C(CCSC)NC(=O)CCC(=O)O)C(=O)NC1CC(OC2CC(O)(C(C)=O)Cc3c(O)c4c(c(O)c32)C(=O)c2c(OC)cccc2C4=O)OC(C)C1O (stereo not drawn) [Suc-Met-Gly-Ile-Dnr] | – | 46% | –
10 | COc1cccc2c1C(=O)c1c(O)c3c(c(O)c1C2=O)CC(O)(C(C)=O)CC3OC1CC(NC(=O)C(CC(C)C)NC(=O)CNC(=O)C(CCSC)NC(=O)CCC(=O)O)C(O)C(C)O1 (stereo not drawn) [Suc-Met-Gly-Leu-Dnr] | – | 55% | –
11 | COc1cccc2c1C(=O)c1c(O)c3c(c(O)c1C2=O)C[C@@](O)(C(C)=O)C[C@@H]3O[C@H]1C[C@H](NC(=O)[C@H](Cc2ccccc2)NC(=O)CNC(=O)[C@H](CCSC)NC(=O)CCC(=O)O)[C@H](O)[C@H](C)O1 [Suc-Met-Gly-Phe-Dnr] | – | 29% | –
12 | CCCCC(NC(=O)CCC(=O)O)C(=O)NCC(=O)NC(Cc1ccccc1)C(=O)NC1CC(OC2CC(O)(C(C)=O)Cc3c(O)c4c(c(O)c32)C(=O)c2c(OC)cccc2C4=O)OC(C)C1O (stereo not drawn) [Suc-Nle-Gly-Phe-Dnr] | – | 17% | –
13 | CCC(C)C(NC(=O)CNC(=O)C(Cc1ccccc1)NC(=O)CCC(=O)O)C(=O)NC1CC(OC2CC(O)(C(C)=O)Cc3c(O)c4c(c(O)c32)C(=O)c2c(OC)cccc2C4=O)OC(C)C1O (stereo not drawn) [Suc-Phe-Gly-Ile-Dnr] | – | 54% | –
14 | COc1cccc2c1C(=O)c1c(O)c3c(c(O)c1C2=O)CC(O)(C(C)=O)CC3OC1CC(NC(=O)C(CC(C)C)NC(=O)CNC(=O)C(Cc2ccccc2)NC(=O)CCC(=O)O)C(O)C(C)O1 (stereo not drawn) [Suc-Phe-Gly-Leu-Dnr] | – | 24% | –
15 | COc1cccc2c1C(=O)c1c(O)c3c(c(O)c1C2=O)CC(O)(C(C)=O)CC3OC1CC(NC(=O)C(Cc2ccccc2)NC(=O)CNC(=O)C(Cc2ccccc2)NC(=O)CCC(=O)O)C(O)C(C)O1 (stereo not drawn) [Suc-Phe-Gly-Phe-Dnr] | – | 12% | –
16 | CCC(C)C(NC(=O)C(C)NC(=O)C(Cc1ccc(O)cc1)NC(=O)CCC(=O)O)C(=O)NC1CC(OC2CC(O)(C(C)=O)Cc3c(O)c4c(c(O)c32)C(=O)c2c(OC)cccc2C4=O)OC(C)C1O (stereo not drawn) [Suc-Tyr-Ala-Ile-Dnr] | – | 25% | –
17 | COc1cccc2c1C(=O)c1c(O)c3c(c(O)c1C2=O)CC(O)(C(C)=O)CC3OC1CC(NC(=O)C(CC(C)C)NC(=O)C(C)NC(=O)C(Cc2ccc(O)cc2)NC(=O)CCC(=O)O)C(O)C(C)O1 (stereo not drawn) [Suc-Tyr-Ala-Len-Dnr] | – | 77% | –
18 | [Zn+2] [Zn^2+] | – | – | inhibition of hydrolysis of Suc-βAla-Leu-Ala-Leu-Dox by HeLa cell Fraction 1 (carcinoma cell trouase; 100 μM): completely inhibits
19 | CO[C@@H]1[C@H](OC(=O)/C=C/C=C/C=C/C=C/C(=O)O)CC[C@]2(CO2)[C@H]1[C@@]1(C)O[C@@H]1CC=C(C)C [fumagillin] | not | – | –
20 | CC(=O)N[C@@H](CC(C)C)C(=O)N[C@@H](CC(C)C)C(=O)N[C@H](C=O)CCCNC(=N)N [leupeptin] | not | – | –
21 | CC(C)CC(=O)N[C@H](C(=O)N[C@H](C(=O)N[C@@H](CC(C)C)[C@@H](O)CC(=O)N[C@@H](C)C(=O)N[C@@H](CC(C)C)[C@@H](O)CC(=O)O)C(C)C)C(C)C [pepstatin] (Isovaleryl-VV[Sta]A[Sta]-OH) | not | – | –
22 | aminoethylbenzene-sufonate | not | – | –
23 | aprotinin | not | – | –

Source: US7214663B2, “Tripeptide prodrug compounds” (Medarex, Inc., priority 2001, dated 2007)
